In patent US20150031733A1, “TETRAZOLINONE COMPOUNDS AND ITS USE” (SUMITOMO CHEMICAL COMPANY, LIMITED, priority 2012, published 2015):

Tested on: common house mosquito (Culex pipiens pallens)
Assay: Common house mosquito larva mortality test in treated water
Format: in vivo
Settings: 24 h, active ingredient concentration 3.5 ppm in water, last instar larva, after 1 day, read-out: mortality of insects
Method: Each formulation containing the present Compounds […] prepared according to the above-mentioned Formulation examples was diluted with water so that the active ingredient concentration was set to 500 ppm and the testing drug solutions were prepared. The above-mentioned drug solutions 0.7 mL were added to an ion-exchange water 100 mL (an active ingredient concentration: 3.5 ppm). Twenty (20) last instar larva of common house mosquito (Culex pipiens pallens) were released into the solutions and after 1 day, the number of the dead insects was counted. The mortality of insects was calculated by the following equation. Mortality of insects(%)=(Number of dead insects/Number of tested insects)×100 The testing drug solutions to be used in this Test example were prepared by diluting the formulations prepared according to the above-mentioned Formulation examples with an ion-exchange water so that the active ingredient concentration was set to 500 ppm. The above-mentioned drug solutions 0.7 mL were added to an ion-exchange water 100 mL so that the active ingredient concentration was set to 3.5 ppm. Twenty (20) last instar larva of common house mosquito (Culex pipiens pallens) were released into the solutions and after […], the number of the dead insects was counted. The mortality of insects was calculated by the following equation. Mortality of insects(%)=(Number of dead insects/Number of tested insects)×100

Compound	pest or weed control at 3.5 ppm
CCc1ccccc1-c1csc(OCc2c(C)cccc2-n2nnn(C)c2=O)n1 [Compound T125, 2-{[1-(4,5-dihydro-4-methyl-5-oxo-1H-tetrazole-1-yl)-3-methylphenyl-2-yl]methyloxy}-4-(2-ethylphenyl)thiazole]	100%
COc1cc(Cl)ccc1-c1csc(OCc2c(C)cccc2-n2nnn(C)c2=O)n1 [Compound T143, 2-{[1-(4,5-dihydro-4-methyl-5-oxo-1H-tetrazole-1-yl)-3-methylphenyl-2-yl]methyloxy}-4-(4-chloro-2-methoxyphenyl)thiazole]	100%

Same assay, conditions: 192 h, active ingredient concentration 3.5 ppm in water, last instar larva, after 8 day, read-out: mortality of insects

Compound	pest or weed control at 3.5 ppm
Cc1cccc(-n2nnn(C)c2=O)c1COc1nc(-c2ccc(C(C)(C)C)cc2)cs1 [Compound T042, 2-{[1-(4,5-dihydro-4-methyl-5-oxo-1H-tetrazole-1-yl)-3-methylphenyl-2-yl]methyloxy}-4-[4-(1,1-dimethylethyl)phenyl]thiazole]	100%
Cc1ccccc1-c1csc(OCc2c(Br)cccc2-n2nnn(C)c2=O)n1 [Compound T091, 2-{[1-(4,5-dihydro-4-methyl-5-oxo-1H-tetrazole-1-yl)-3-bromophenyl-2-yl]methyloxy}-4-(2-methylphenyl)thiazole]	100%
CCc1cccc(-n2nnn(C)c2=O)c1COc1nc(-c2ccccc2C)cs1 [Compound T097, 2-{[1-(4,5-dihydro-4-methyl-5-oxo-1H-tetrazole-1-yl)-3-ethylphenyl-2-yl]methyloxy}-4-(2-methylphenyl)thiazole]	100%
CCCCCCCc1ccccc1-c1csc(OCc2c(C)cccc2-n2nnn(C)c2=O)n1 [Compound T144, 2-{[1-(4,5-dihydro-4-methyl-5-oxo-1H-tetrazole-1-yl)-3-methylphenyl-2-yl]methyloxy}-4-(2-heptylphenyl)thiazole]	100%
CCCCCCCc1cccc(-c2csc(OCc3c(C)cccc3-n3nnn(C)c3=O)n2)c1 [Compound T146, 2-{[1-(4,5-dihydro-4-methyl-5-oxo-1H-tetrazole-1-yl)-3-methylphenyl-2-yl]methyloxy}-4-(3-heptylphenyl)thiazole]	100%
Cn1nnn(-c2ccc(F)cc2COc2nc(-c3ccc(Br)cc3)cs2)c1=O [Compound T147, 2-{[1-(4,5-dihydro-4-methyl-5-oxo-1H-tetrazole-1-yl)-4-fluorophenyl-2-yl]methyloxy}-4-(4-bromophenyl)thiazole]	100%
COc1ccc(C)cc1-c1csc(OCc2c(C)cccc2-n2nnn(C)c2=O)n1 [Compound T148, 2-{[1-(4,5-dihydro-4-methyl-5-oxo-1H-tetrazole-1-yl)-3-methylphenyl-2-yl]methyloxy}-4-(5-methyl-2-methoxyphenyl)thiazole]	100%

Tested on: housefly (Musca domestica)
Assay: Housefly mortality test on treated filter paper
Format: in vivo
Settings: 500 ppm solution 0.7 mL on filter paper, female adult, after 24 hours
Method: Each formulation containing the present Compounds […] prepared according to the above-mentioned Formulation examples was diluted with water so that the active ingredient concentration was set to 500 ppm and the testing drug solutions were prepared. […] Ten (10) individuals of female adult housefly (Musca domestica) was released into the polyethylene cup and the cup was covered with the lid. After 24 hours, the number of the dead insects was counted. The mortality of insects was calculated by the following equation. Mortality of insects(%)=(Number of dead insects/Number of tested insects)×100

Compound	mortality of insects
Cc1cccc(-n2nnn(C)c2=O)c1COc1nc(-c2ccc(I)cc2)cs1 [Compound T033, 2-{[1-(4,5-dihydro-4-methyl-5-oxo-1H-tetrazole-1-yl)-3-methylphenyl-2-yl]methyloxy}-4-(4-iodophenyl)thiazole]	100%
Cc1ccc(-c2csc(OCc3c(C)cccc3-n3nnn(C)c3=O)n2)cc1 [Compound T039, 2-{[1-(4,5-dihydro-4-methyl-5-oxo-1H-tetrazole-1-yl)-3-methylphenyl-2-yl]methyloxy}-4-(4-methylphenyl)thiazole]	100%

Tested on: cabbage moth (Plutella xylostella)
Assay: Cabbage moth mortality test on sprayed cabbage
Format: in vivo
Settings: 500 ppm, 20 mL/cup sprayed on cabbage, three instar larval stages, after 5 days
Method: The testing drug solutions to be used in this Test example were prepared by diluting the formulations prepared according to the above-mentioned Formulation examples with an ion-exchange water so that the active ingredient concentration was set to 500 ppm. Cabbage (green ball) was planted in a polyethylene cup and was grown until the third true leaf or the fourth true leaf was developed. To the cabbage (Brassicae oleracea) was sprayed the above-mentioned testing solutions in a ratio of 20 mL/cup. After the drug solutions were dried, to a polyethylene cup (diameter 5.5 cm) covered with a filter paper on the bottom, the cabbage cut out from the root was installed and five heads of cabbage moth (Plutella xylostella) at the three instar larval stages were released into the cup and the cup was covered with the lid. The cup was held at 25° C. and after 5 days, the number of the surviving insects was counted and the mortality of insects was calculated by the following equation. Mortality of insects(%)=(Number of dead insects/Number of tested insects)×100

Compound	mortality of insects
Cc1cccc(-n2nnn(C)c2=O)c1COc1nc(-c2ccc(Br)cc2F)cs1 [Compound T034, 2-{[1-(4,5-dihydro-4-methyl-5-oxo-1H-tetrazole-1-yl)-3-methylphenyl-2-yl]methyloxy}-4-(4-bromo-2-fluorophenyl)thiazole]	80%
Cc1cccc(-n2nnn(C)c2=O)c1COc1nc(-c2c(F)c(F)c(F)c(F)c2F)cs1 [Compound T036, 2-{[1-(4,5-dihydro-4-methyl-5-oxo-1H-tetrazole-1-yl)-3-methylphenyl-2-yl]methyloxy}-4-(2,3,4,5,6-pentafluorophenyl)thiazole]	80%
CCCCc1ccc(-c2csc(OCc3c(C)cccc3-n3nnn(C)c3=O)n2)cc1 [Compound T041, 2-{[1-(4,5-dihydro-4-methyl-5-oxo-1H-tetrazole-1-yl)-3-methylphenyl-2-yl]methyloxy}-4-(4-butylphenyl)thiazole]	80%
Cc1cccc(-n2nnn(C)c2=O)c1COc1nc(-c2ccc(C(C)(C)C)cc2)cs1 [Compound T042, 2-{[1-(4,5-dihydro-4-methyl-5-oxo-1H-tetrazole-1-yl)-3-methylphenyl-2-yl]methyloxy}-4-[4-(1,1-dimethylethyl)phenyl]thiazole]	80%
Cc1ccccc1-c1csc(OCc2c(Br)cccc2-n2nnn(C)c2=O)n1 [Compound T091, 2-{[1-(4,5-dihydro-4-methyl-5-oxo-1H-tetrazole-1-yl)-3-bromophenyl-2-yl]methyloxy}-4-(2-methylphenyl)thiazole]	80%
CCc1ccccc1-c1csc(OCc2c(C)cccc2-n2nnn(C)c2=O)n1 [Compound T125, 2-{[1-(4,5-dihydro-4-methyl-5-oxo-1H-tetrazole-1-yl)-3-methylphenyl-2-yl]methyloxy}-4-(2-ethylphenyl)thiazole]	80%
Cc1cccc(-n2nnn(C)c2=O)c1COc1nc(-c2cccc(Br)c2)cs1 [Compound T145, 2-{[1-(4,5-dihydro-4-methyl-5-oxo-1H-tetrazole-1-yl)-3-methylphenyl-2-yl]methyloxy}-4-(3-bromophenyl)thiazole]	80%
